Measured values published in article PMC7673538 (PLoS Biology, 2020).
Read-outs that look alike come from different tables or passages of the source.

Assays:
[1] = tested on: CV-B3; assay: microbe, parasite or virus in culture; format: cell-based, coxsackievirus B3; conditions: for EC50: Enterovirus B
[2] = in vitro; conditions: human
[3] = target: T1, human DAT (Homo sapiens, UniProt Q01959); format: cell-based
T1 construct: expressed in transfected cells; host or cells: HEK293 (gift of Dr. Hoener, F. Hoffmann-La Roche)
T1 sequence (Q01959 whole entry): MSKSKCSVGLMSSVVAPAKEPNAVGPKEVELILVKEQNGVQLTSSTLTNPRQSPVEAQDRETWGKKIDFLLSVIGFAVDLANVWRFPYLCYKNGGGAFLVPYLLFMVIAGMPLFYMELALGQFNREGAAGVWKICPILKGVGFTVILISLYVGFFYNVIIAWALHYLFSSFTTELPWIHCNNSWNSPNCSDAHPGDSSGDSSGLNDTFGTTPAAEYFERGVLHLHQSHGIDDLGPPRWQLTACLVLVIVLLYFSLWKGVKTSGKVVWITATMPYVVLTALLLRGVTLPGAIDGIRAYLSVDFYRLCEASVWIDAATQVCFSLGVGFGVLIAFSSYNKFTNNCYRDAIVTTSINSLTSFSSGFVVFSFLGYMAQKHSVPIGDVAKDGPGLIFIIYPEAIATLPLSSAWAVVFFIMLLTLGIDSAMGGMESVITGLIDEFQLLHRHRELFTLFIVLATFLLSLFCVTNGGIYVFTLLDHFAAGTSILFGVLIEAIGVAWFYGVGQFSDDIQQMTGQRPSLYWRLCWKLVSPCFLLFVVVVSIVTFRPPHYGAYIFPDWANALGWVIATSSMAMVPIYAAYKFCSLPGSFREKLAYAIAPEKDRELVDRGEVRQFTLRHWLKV

[4] = CVB3, HeLa R19, read-out: CV-B3 EC50 Average
[5] = CVB3, HeLa R19, read-out: CV-B3 Exp 1 EC50
[6] = CVB3, HeLa R19, read-out: CV-B3 Exp2 EC50

SMILES	antiviral activity against CV-B3 (in words) [1]	EC50 ([1]; CVB3, HeLa R19) [µM]	EC50 [1, 4] [µM]	EC50 [1, 5] [µM]	EC50 [1, 6] [µM]	CC50 ([2]; CC50) [µM]	CC50 ([2]; CC50 Average) [µM]	CC50 ([2]; Exp 1 CC50) [µM]	CC50 ([2]; Exp2 CC50) [µM]	inhibition of DAT function (in words) [3]
CNCC(=O)N(Cc1ccc(F)cc1)c1ccc(OC)cc1 [Compound 6, N-(4-fluorobenzyl)-N-(4-methoxyphenyl)-2-(methylamino)acetamide]	loss of antiviral activity	> 30	> 30	> 30	> 30	> 30	> 30	> 30	> 30	–
CNCCC(Oc1ccc(C(F)(F)F)cc1)c1ccccc1 (stereo not shown) [fluoxetine, reference compound]	–	–	–	–	–	–	–	–	–	promiscuously inhibited also the DAT and NET activity at 100 μM
COc1ccc(N(Cc2ccc(F)cc2)Cc2ccco2)cc1 [Compound 5g, N-(4-fluorobenzyl)-N-(furan-2-ylmethyl)-4-methoxyaniline]	loss of antiviral activity	> 30	> 30	> 30	> 30	> 30	> 30	> 30	> 30	–
COc1ccc(N(Cc2ccco2)C(=O)c2ccc(F)cc2)cc1 [Compound 15, 4-Fluoro-N-(furan-2-ylmethyl)-N-(4-methoxyphenyl)benzamide]	abolished antiviral acitivty	> 30	> 30	> 30	> 30	> 30	> 30	> 30	> 30	–
COc1ccc(N(Cc2ccc(F)cc2)C(C)=O)cc1 [Compound 5a, N-(4-fluorobenzyl)-N-(4-methoxyphenyl)acetamide]	loss of antiviral activity	> 30	> 30	> 30	> 30	> 30	> 30	> 30	> 30	–
COc1ccc(N(Cc2ccc(F)cc2)C(=O)C2CCCO2)cc1 (stereo not shown) [Compound 5f, N-(4-Fluorobenzyl)-N-(4-methoxyphenyl)tetrahydrofuran-2-carboxamide]	loss of antiviral activity	> 30	> 30	> 30	> 30	> 30	> 30	> 30	> 30	–
COc1ccc(N(Cc2ccc(F)cc2)S(=O)(=O)c2ccco2)cc1 [Compound 5b, N-(4-fluorobenzyl)-N-(4-methoxyphenyl)furan-2-sulfonamide]	loss of antiviral activity	> 30	> 30	> 30	> 30	> 30	> 30	> 30	> 30	–
